According to the supplement of paper PMC9663587:

Assays:
Experiment in all cases: increase in dead-cell fraction, 72 h; higher = more death;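 note: breast cancer cell lines in 384-well plates, stained with Hoechst plus LIVE/DEAD far red dye and imaged, cells above an LDR intensity threshold counted dead, Hoechst-negative corpses included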
Torin2 = compound: C1=CC(=CC(=C1)N2C(=O)C=CC3=CN=C4C=CC(=CC4=C32)C5=CN=C(C=C5)N)C(F)(F)F [Torin2]
Ipatasertib/GDC0068 = compound: CC(C)NC[C@@H](C(=O)N1CCN(c2ncnc3c2[C@H](C)C[C@H]3O)CC1)c1ccc(Cl)cc1 [Ipatasertib/GDC0068]
[1] = compound: CCC1=CN=CN=C1N2CCN(CC2)CC3=NC4=C(N3)C=C(C=C4)C(F)(F)F
ABT-737 = compound: CN(C)CC[C@H](CSc1ccccc1)Nc1ccc(S(=O)(=O)NC(=O)c2ccc(N3CCN(Cc4ccccc4-c4ccc(Cl)cc4)CC3)cc2)cc1[N+](=O)[O-] [ABT-737]
Everolimus = compound: CO[C@H]1C[C@@H]2CC[C@@H](C)[C@@](O)(O2)C(=O)C(=O)N2CCCC[C@H]2C(=O)O[C@H]([C@H](C)C[C@@H]2CC[C@@H](OCCO)[C@H](OC)C2)CC(=O)[C@H](C)/C=C(\C)[C@@H](O)[C@@H](OC)C(=O)[C@H](C)C[C@H](C)/C=C/C=C/C=C/1C [Everolimus]
Cediranib/AZD2171 = compound: COc1cc2c(Oc3ccc4[nH]c(C)cc4c3F)ncnc2cc1OCCCN1CCCC1 [Cediranib/AZD2171]
[2] = compound: COc1ccc2c(c1)[C@]1(C[C@H]1c1ccc3c(/C=C/c4ccc(CN5C[C@@H](C)O[C@@H](C)C5)cc4)n[nH]c3c1)C(=O)N2
[3] = compound: COc1cccc(OCCCN)c1-c1cc(Nc2cnc(C#N)cn2)n[nH]1
Doxorubicin = compound: COc1cccc2c1C(=O)c1c(O)c3c(c(O)c1C2=O)C[C@@](O)(C(=O)CO)C[C@@H]3O[C@H]1C[C@H](N)[C@H](O)[C@H](C)O1 [Doxorubicin]
AZD6738 = compound: C[C@@H]1COCCN1c1cc(C2([S@](C)(=N)=O)CC2)nc(-c2cc[nH]c3nccc2-3)n1 [AZD6738]
Taselisib/GDC0032 = compound: Cc1nc(-c2cn3c(n2)-c2ccc(-c4cnn(C(C)(C)C(N)=O)c4)cc2OCC3)n(C(C)C)n1 [Taselisib/GDC0032]

AU565
increase in dead-cell fraction (Torin2; 0.0001 µM): 0.0019
increase in dead-cell fraction (Torin2; 0.0003162 µM): 0.0033
increase in dead-cell fraction (Torin2; 0.001 µM): 0.0025
increase in dead-cell fraction (Torin2; 0.003162 µM): 0.0127
increase in dead-cell fraction (Torin2; 0.01 µM): 0.032
increase in dead-cell fraction (Torin2; 0.03162 µM): 0.0466
increase in dead-cell fraction (Torin2; 0.1 µM): 0.0874
increase in dead-cell fraction (Torin2; 0.3162 µM): 0.0982
increase in dead-cell fraction (Torin2; 1 µM): 0.121
increase in dead-cell fraction (Ipatasertib/GDC0068; 0.001 µM): 0.0001
increase in dead-cell fraction (Ipatasertib/GDC0068; 0.003162 µM): 0.0023
increase in dead-cell fraction (Ipatasertib/GDC0068; 0.01 µM): -0.0023
increase in dead-cell fraction (Ipatasertib/GDC0068; 0.03162 µM): -0.0006
increase in dead-cell fraction (Ipatasertib/GDC0068; 0.1 µM): 0.0018
increase in dead-cell fraction (Ipatasertib/GDC0068; 0.3162 µM): 0.0082
increase in dead-cell fraction (Ipatasertib/GDC0068; 1 µM): 0.0032
increase in dead-cell fraction (Ipatasertib/GDC0068; 3.162 µM): 0.0084
increase in dead-cell fraction (Ipatasertib/GDC0068; 10 µM): 0.0293
increase in dead-cell fraction ([1]; 0.001 µM): 0.0018
increase in dead-cell fraction ([1]; 0.003162 µM): -0.0015
increase in dead-cell fraction ([1]; 0.01 µM): -0.0042
increase in dead-cell fraction ([1]; 0.03162 µM): -0.0013
increase in dead-cell fraction ([1]; 0.1 µM): 0.0031
increase in dead-cell fraction ([1]; 0.3162 µM): -0.0005
increase in dead-cell fraction ([1]; 1 µM): 0.001
increase in dead-cell fraction ([1]; 3.162 µM): 0.0056
increase in dead-cell fraction ([1]; 10 µM): 0.0157
increase in dead-cell fraction (ABT-737; 0.001 µM): 0.0066
increase in dead-cell fraction (ABT-737; 0.003162 µM): 0.0005
increase in dead-cell fraction (ABT-737; 0.01 µM): 0.0025
increase in dead-cell fraction (ABT-737; 0.03162 µM): -0.0006
increase in dead-cell fraction (ABT-737; 0.1 µM): 0.0014
increase in dead-cell fraction (ABT-737; 0.3162 µM): 0.0008
increase in dead-cell fraction (ABT-737; 1 µM): 0.0066
increase in dead-cell fraction (ABT-737; 3.162 µM): 0.0073
increase in dead-cell fraction (ABT-737; 10 µM): 0.0507
increase in dead-cell fraction (Everolimus; 0.001 µM): 0.0191
increase in dead-cell fraction (Everolimus; 0.003162 µM): 0.0225
increase in dead-cell fraction (Everolimus; 0.01 µM): 0.0257
increase in dead-cell fraction (Everolimus; 0.03162 µM): 0.0132
increase in dead-cell fraction (Everolimus; 0.1 µM): 0.0177
increase in dead-cell fraction (Everolimus; 0.3162 µM): 0.0133
increase in dead-cell fraction (Everolimus; 1 µM): 0.011
increase in dead-cell fraction (Everolimus; 3.162 µM): 0.019
increase in dead-cell fraction (Everolimus; 10 µM): 0.0283
increase in dead-cell fraction (Cediranib/AZD2171; 0.001 µM): 0.0037
increase in dead-cell fraction (Cediranib/AZD2171; 0.003162 µM): 0.0046
increase in dead-cell fraction (Cediranib/AZD2171; 0.01 µM): 0.0016
increase in dead-cell fraction (Cediranib/AZD2171; 0.03162 µM): 0.0034
increase in dead-cell fraction (Cediranib/AZD2171; 0.1 µM): -0.0003
increase in dead-cell fraction (Cediranib/AZD2171; 0.3162 µM): -0.0061
increase in dead-cell fraction (Cediranib/AZD2171; 1 µM): -0.0046
increase in dead-cell fraction (Cediranib/AZD2171; 3.162 µM): -0.0048
increase in dead-cell fraction (Cediranib/AZD2171; 10 µM): 0.0027
increase in dead-cell fraction ([2]; 0.0001 µM): 0.0001
increase in dead-cell fraction ([2]; 0.0003162 µM): -0.0015
increase in dead-cell fraction ([2]; 0.001 µM): 0.0053
increase in dead-cell fraction ([2]; 0.003162 µM): 0.016
increase in dead-cell fraction ([2]; 0.01 µM): 0.139
increase in dead-cell fraction ([2]; 0.03162 µM): 0.126
increase in dead-cell fraction ([2]; 0.1 µM): 0.108
increase in dead-cell fraction ([2]; 0.3162 µM): 0.0794
increase in dead-cell fraction ([2]; 1 µM): 0.121
increase in dead-cell fraction ([3]; 10 pM): -0.002
increase in dead-cell fraction ([3]; 31.6 pM): -0.0013
increase in dead-cell fraction ([3]; 0.0001 µM): -0.0035
increase in dead-cell fraction ([3]; 0.0003162 µM): -0.0022
increase in dead-cell fraction ([3]; 0.001 µM): 0.139
increase in dead-cell fraction ([3]; 0.003162 µM): 0.168
increase in dead-cell fraction ([3]; 0.01 µM): 0.194
increase in dead-cell fraction ([3]; 0.03162 µM): 0.187
increase in dead-cell fraction ([3]; 0.1 µM): 0.211
increase in dead-cell fraction (Doxorubicin; 0.0003162 µM): 0.0037
increase in dead-cell fraction (Doxorubicin; 0.001 µM): 0.0029
increase in dead-cell fraction (Doxorubicin; 0.003162 µM): -0.0003
increase in dead-cell fraction (Doxorubicin; 0.01 µM): -0.0009
increase in dead-cell fraction (Doxorubicin; 0.03162 µM): 0.0192
increase in dead-cell fraction (Doxorubicin; 0.1 µM): 0.0682
increase in dead-cell fraction (Doxorubicin; 0.3162 µM): 0.138
increase in dead-cell fraction (Doxorubicin; 1 µM): 0.199
increase in dead-cell fraction (Doxorubicin; 3.162 µM): 0.22
increase in dead-cell fraction (AZD6738; 0.001 µM): 0.0013
increase in dead-cell fraction (AZD6738; 0.003162 µM): 0.0103
increase in dead-cell fraction (AZD6738; 0.01 µM): -0.0124
increase in dead-cell fraction (AZD6738; 0.03162 µM): -0.0113
increase in dead-cell fraction (AZD6738; 0.1 µM): -0.0075
increase in dead-cell fraction (AZD6738; 0.3162 µM): -0.003
increase in dead-cell fraction (AZD6738; 1 µM): 0.0064
increase in dead-cell fraction (AZD6738; 3.162 µM): 0.0079
increase in dead-cell fraction (AZD6738; 10 µM): 0.0831
increase in dead-cell fraction (Taselisib/GDC0032; 0.001 µM): 0.0087
increase in dead-cell fraction (Taselisib/GDC0032; 0.003162 µM): 0.0153
increase in dead-cell fraction (Taselisib/GDC0032; 0.01 µM): 0.0378
increase in dead-cell fraction (Taselisib/GDC0032; 0.03162 µM): 0.0611
increase in dead-cell fraction (Taselisib/GDC0032; 0.1 µM): 0.0674
increase in dead-cell fraction (Taselisib/GDC0032; 0.3162 µM): 0.0853
increase in dead-cell fraction (Taselisib/GDC0032; 1 µM): 0.0898
increase in dead-cell fraction (Taselisib/GDC0032; 3.162 µM): 0.0794
increase in dead-cell fraction (Taselisib/GDC0032; 10 µM): 0.207
